Experimental data reported in US10583173B2, “Methods of treating or preventing pruritis by blocking natriuretic polypeptide b” (priority 2013, dated 2020).
Where no end group is shown, it is not given here.

Assays:
Type in all cases: in vivo, mouse
mice [1] = assay: Scratching after intradermal injection of pruritogens; details: control (wild-type) animals; doses of Table 1
Method: (§1) Itch inducing substances (see Table 1) were injected intradermally into the shoulder of mice and numbers of scratching bouts assessed over 30 minutes. […] Table 1 also indicates the receptors or mechanisms believed to be activated by the various compounds in the itch response pathway.
Intradermal injections were performed. The number of scratching bouts for substances that directly activate pruriceptors was recorded. The number of scratching bouts after injection with compound 48/80, which causes itch via an indirect route (McNeil et al., Neuroscience Bulletin, 28:100 (2012)), was also recorded. All of these agents (Table 1) reliably triggered multiple bouts of scratching in control animals (FIG. 1D), but Nppb^−/− mice were almost completely insensitive to the full range of pruritic substances tested (FIG. 1D).

[2] = system: neurons in the dorsal root ganglion (DRG) and superficial dorsal horn (sDH); assay: Immediate early gene induction (Egr1 in DRG, cFos in sDH) by ISH
Method: To gain additional evidence that systemic Nppb activates a central itch pathway, the pattern of cellular activation of neurons in the dorsal root ganglion (DRG) and superficial dorsal horn (sDH) was compared by analyzing induction of immediate early gene expression. The skin was stimulated by pruritogen and injections of noxious compounds and the robust induction of immediate early genes, Egr1 and cFos (in the DRG and sDH respectively) was evaluated. Intradermal injection of chloroquine was utilized to excite MrgprA3 peripheral DRG neurons. […] The number of positive Egr-1-positive cells correlated well with the previously reported numbers of MrgprA3-expressing receptor neurons in DRG. […] Therefore, the initial and later cellular stages of the pruriceptive neural pathway could be reliably monitored biochemically and anatomically and itch signaling could be distinguished from that elicited by the noxious agent formalin.
It was reasoned that if ivNppb was directly activating centrally, then induction of immediate early gene expression would be seen in sDH-neurons and not DRG neurons. […] As expected from the generalized scratching responses evoked by ivNppb, in both hemispheres of the spinal cord and along the entire length of the spinal cord, cFos-activated neurons could be detected. Furthermore, also consistent with the itch-behavioral result, the profile of cFos-activated neurons in the sDH was similar to that generated by epidermal injection of chloroquine.

mice [3] = assay: Scratching after intrathecal injection of GRP
Text: (§2) All experiments using animals followed NIH guidelines and were approved by the National Institute of Dental and Craniofacial ACUC. The targeted JM8A3 ES-cell clone A04 with disruption of the Nppb gene was obtained from Mouse Biology Program (MBP), UC Davis and was used to generate chimeric mice. Chimeras were crossed with C57BL/6 mice and heterozygous offspring were mated to generate paired knockouts and controls. Transgenic (Tg) (gastrin releasing peptide (GRP)-enhanced green fluorescent protein (EGFP)) animals (Gong et al., Nature, 425:917 (2003)) were employed to localize expression of GRP. Male C57BL/6 (8-14 weeks) mice were used for selective toxin ablation and GRP-antagonist itch experiments. Ablation of Npra and GRP-receptor-expressing spinal cord interneurons was accomplished by intrathecal (segment L3/4) injection of Nppb-saporin (5 μg in 10 μl; Advanced targeting Systems, San Diego, Calif.) and GRP-saporin (2.5 μg) respectively. Experiments were initiated two weeks after toxin injection.
(§3) Pretreatment with GRP antagonist deamino-Phe19,D-Ala24,D-Pro26-D-Phe27-GRP (Yegen et al., Regulatory Peptides, 61:175 (1996)) (1 nM in 10 μl) was used to block GRP-receptor.
(§4) How Nppb induces this stereotyped scratch response was investigated. It was hypothesized that because this peptide is prominently expressed in somatosensory neurons, the most plausible explanation for its role would be if it acted as a specific itch-related neuromodulator (or neurotransmitter) in the spinal cord. […] Intrathecal injection of Nppb into Nppb^−/− mice also led to an equivalent phenotype (FIG. 1E). No significant differences in response between genotypes were found (Student's t-test). Loss of Nppb in sensory afferents was thus responsible for the pruriceptive deficits seen in mutant mice. Without being bound to a particular theory or mechanism, it is believed that Nppb-expression delineates the subset of somatosensory neurons that detect pruritic agents and that central release of Nppb from these neurons is necessary for the itch response.

Wild-type mice (C57BL/6) [4] = assay: Scratching after intravenous administration of natriuretic peptides (ivNppb)
Method: Elevated blood Nppb is found in kidney disalysis patients. Accordingly, the effect of elevated blood Nppb on itching in mice was evaluated. Wild-type mice (C57BL/6) were intravenously administered Nppb and were untreated or treated with GRP-antagonist or Nppb saporin. The bouts of scratching were counted.
Nppb deficient or wild-type (C57BL/6) mice were intravenously (i.v.) administered Nppb, Nppa, or Nppc, and the bouts of scratches were measured.
To mimic the high concentration of Nppb found in renal itch patients, mice were i.v. administered Nppb (via tail vein injection). […] Approximately ten minutes after administration of Nppb, mice began to persistently scratch their flank, face, hind quarters and abdomens. This behavior slowly diminished and almost completely ceased approximately 1 hour after injection. The induction of scratching was dose dependent, with a 1.2 μg/kg dose producing saturating behavioral responses. In all subsequent experiments, a dose of 1.2 μg/kg Nppb (abbreviated as “ivNppb”) was used, and bouts of scratching were counted over a period of 1 hour.
Npra neurons themselves express GRP and are thought to release GRP which, in turn, activates GRPR-cells.

mice [5] = assay: Scratching after lumbar intrathecal injection of Nppb
Text: as §2, §3, §4

Wild-type mice (C57BL/6) [6] = assay: Histamine-induced scratching (bouts of scratching after intradermal histamine); details: intradermal histamine 100 μg in 10 μl, scratching bouts over 30 minutes, vs histamine alone/untreated
Text: as §2, §1, §3
Wild-type mice (C57BL/6) were administered histamine alone, a combination of histamine and a GRP antagonist, or a combination of histamine and anantin. […] to another receptor in the itch pathway and was used as a control. Bouts of scratching were counted.

[7] = lumbar 4-5 segment intrathecal injection

Q: With `CCN(CC)CCCC(C)Nc1ccnc2cc(Cl)ccc12` (stereo not drawn) [chloroquine] as the compound, how does the “scratching / itch-behavior after intradermal injection of pruritic agent” value (mice [1]) read?
A: triggered itch-behavior

Q: What about the “Egr1 expression in DRG neurons” value [2] of the same compound?
A: induced Egr1 expression

Q: What about the “cFos induction in superficial dorsal horn (sDH) neurons” value [2] of the same compound?
A: induced cFos expression

Q: What does the source list for `C=O` [formalin]?
A: Egr1 expression in DRG neurons [2]: induced Egr-1 expression in a far larger number; cFos induction in superficial dorsal horn (sDH) neurons [2]: induced cFos expression

Q: How did the “itch responses induced by intrathecal injection of the peptide” value (mice [3]; GRP 1 nM in 10 μl, mutant and control animals) turn out when “GRP: gastrin releasing peptide (APVSTGAGGGTVLAKMYPRGSHWAVGHLM; ends and bridges not checked; UniProt Q8R1I2 24-52, looked up)” was run?
A: triggered itch responses

Q: And the “onset of pruriceptive response after intrathecal GRP” value (mice [3]; [7])?
A: ~5 min

Q: What does the source list for Nppb?
A: scratching/itch induced by i.v. administration of the peptide (Wild-type mice (C57BL/6) [4]; i.v. tail vein): robust whole body scratching behavior; time after i.v. administration at which persistent scratching began (Wild-type mice (C57BL/6) [4]; i.v. tail vein): Approximately ten; time after i.v. injection at which scratching almost completely ceased (Wild-type mice (C57BL/6) [4]; i.v. tail vein): approximately 1 hour; dose producing saturating behavioral responses (scratching) (Wild-type mice (C57BL/6) [4]; i.v., dose dependent): 1.2 µg/kg; Egr1 expression in DRG neurons [2]: did not induce expression of Egr1; cFos induction in superficial dorsal horn (sDH) neurons [2]: caused cFos induction; scratching induced by intrathecal injection of the peptide (mice [5]; Nppb 5 μg in 10 μl, lumbar 4-5 segment, control and Nppb−/− mice): induced repeated bouts of scratching; onset of pruriceptive response after intrathecal Nppb (mice [5]; [7]): ~5 min

Q: Which results are given for “Nppc: C-type natriuretic peptide, selective agonist for natriuretic peptide receptor Nprb (GLSKGCFGLKLDRIGSMSGLGC; ends and bridges not checked; cysteine pairing not given here; UniProt Q61839 105-126, looked up)”?
A: scratching/itch induced by i.v. administration of the peptide (Wild-type mice (C57BL/6) [4]; i.v. (tail vein), listed as C-type natriuretic peptide): produced no observable reaction; scratching/itch induced by i.v. administration of the peptide (Wild-type mice (C57BL/6) [4]; i.v. tail vein): did not induce significant itch

Q: What does the source list for anantin?
A: bouts of scratching after histamine injection, effect of treatment (Wild-type mice (C57BL/6) [6]): attenuated histamine-induced itch; bouts of scratching after histamine injection, effect of treatment (Wild-type mice (C57BL/6) [6]; listed as Anantin): statistically different

Q: With “deamino-Phe19,D-Ala24,D-Pro26-D-Phe27-GRP [GRP antagonist]” as the compound, how does the “scratching induced by intrathecal GRP, effect of pretreatment” value (mice [3]; GRP 1 nM in 10 μl intrathecal, vs untreated mice) read?
A: attenuated scratching

Q: What about the “bouts of scratching after histamine injection, effect of treatment” value (Wild-type mice (C57BL/6) [6]) of the same compound?
A: attenuated scratching

Q: And the “bouts of scratching after histamine injection, effect of treatment” value (Wild-type mice (C57BL/6) [6]; listed as GRP-antagonist)?
A: statistically different

Q: What about the “i.v. Nppb-induced itch, effect of pretreatment” value (Wild-type mice (C57BL/6) [4]; i.v. Nppb, bouts of scratching, vs untreated) of the same compound?
A: blocked

Q: And the “scratching induced by lumbar intrathecal injection of Nppb, effect of pretreatment” value (mice [5]; Nppb 5 μg in 10 μl intrathecal, vs untreated mice)?
A: strongly attenuated
